Each compound was assayed against Cystic fibrosis transmembrane conductance regulator (Homo sapiens, UniProt P13569).
Chain of Cystic fibrosis transmembrane conductance regulator (P13569 whole entry): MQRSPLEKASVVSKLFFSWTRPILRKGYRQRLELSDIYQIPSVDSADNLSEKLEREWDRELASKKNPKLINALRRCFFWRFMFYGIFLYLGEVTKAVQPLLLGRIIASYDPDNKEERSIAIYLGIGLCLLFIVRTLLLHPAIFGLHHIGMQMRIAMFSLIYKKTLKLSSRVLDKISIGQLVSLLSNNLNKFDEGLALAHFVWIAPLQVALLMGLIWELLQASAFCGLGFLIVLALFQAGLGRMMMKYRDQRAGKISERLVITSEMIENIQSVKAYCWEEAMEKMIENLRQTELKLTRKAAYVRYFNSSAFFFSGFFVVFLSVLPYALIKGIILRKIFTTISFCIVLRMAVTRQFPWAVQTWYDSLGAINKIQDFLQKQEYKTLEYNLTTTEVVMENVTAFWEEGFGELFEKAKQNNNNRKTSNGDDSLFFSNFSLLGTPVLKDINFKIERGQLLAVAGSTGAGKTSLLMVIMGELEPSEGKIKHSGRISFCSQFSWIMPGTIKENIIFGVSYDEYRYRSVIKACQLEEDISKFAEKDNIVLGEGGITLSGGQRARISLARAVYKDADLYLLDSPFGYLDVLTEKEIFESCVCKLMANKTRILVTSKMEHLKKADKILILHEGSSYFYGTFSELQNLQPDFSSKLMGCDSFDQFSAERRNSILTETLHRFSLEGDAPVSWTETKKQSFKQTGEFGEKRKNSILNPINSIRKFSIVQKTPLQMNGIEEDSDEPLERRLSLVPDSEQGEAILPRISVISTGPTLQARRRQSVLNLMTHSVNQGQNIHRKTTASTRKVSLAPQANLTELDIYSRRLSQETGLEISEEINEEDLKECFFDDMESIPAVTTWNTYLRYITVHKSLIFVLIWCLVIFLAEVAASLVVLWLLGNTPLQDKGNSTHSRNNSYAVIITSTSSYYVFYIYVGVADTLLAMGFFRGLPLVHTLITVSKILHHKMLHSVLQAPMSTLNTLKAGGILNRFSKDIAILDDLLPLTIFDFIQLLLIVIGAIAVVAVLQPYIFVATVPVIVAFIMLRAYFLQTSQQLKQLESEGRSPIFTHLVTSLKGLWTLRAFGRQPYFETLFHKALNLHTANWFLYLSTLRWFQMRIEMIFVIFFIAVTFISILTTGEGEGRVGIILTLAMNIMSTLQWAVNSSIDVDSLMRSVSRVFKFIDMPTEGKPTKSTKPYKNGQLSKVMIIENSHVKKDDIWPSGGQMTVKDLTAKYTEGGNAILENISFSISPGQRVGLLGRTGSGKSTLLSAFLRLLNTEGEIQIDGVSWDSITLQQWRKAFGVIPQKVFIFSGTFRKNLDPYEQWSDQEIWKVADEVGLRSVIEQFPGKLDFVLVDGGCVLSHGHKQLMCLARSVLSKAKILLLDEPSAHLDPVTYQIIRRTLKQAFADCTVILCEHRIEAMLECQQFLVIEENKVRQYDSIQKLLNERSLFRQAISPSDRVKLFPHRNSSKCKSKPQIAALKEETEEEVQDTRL
In the case of `O=C(O)/C=C/c1ccc(Cn2ccnc2)cc1`, the EC50 is reported as greater than 50 µM and the IC50 is reported as 3.43 µM. `CC(C)C[C@H](NC(=O)[C@H](Cc1ccccc1)NC(=O)c1cnccn1)B(O)O` gave an EC50 greater than 50 µM. `CN(C/C=C/C#CC(C)(C)C)Cc1cccc2ccccc12` [(6,6-Dimethyl-hept-2-en-4-ynyl)-methyl-naphthalen-1-ylmethyl-amine(Terbinafine)] gave an EC50 greater than 50 µM and an IC50 greater than 25 µM. Work on `CO[C@H]1/C=C/O[C@@]2(C)Oc3c(C)c(O)c4c(c3C2=O)C(=O)/C(=C/NN2CCN(C)CC2)C(=C4O)NC(=O)/C(C)=C\C=C\C(C)[C@H](O)[C@@H](C)[C@@H](O)[C@@H](C)[C@@H](OC(C)=O)[C@@H]1C` (some centres undefined) [AB00052086_02] yielded an EC50 greater than 50 µM. For `O=C(O)c1ccccc1-c1c2cc(Br)c(=O)cc-2oc2[c]([Hg])c(O)c(Br)cc12` [AB00053570_02], the EC50 was greater than 50 µM and the IC50 was greater than 50 µM. With `C[n+]1c2cc(N)ccc2cc2ccc(N)cc21` [AB00053810_11] the EC50 was greater than 50 µM and the IC50 was 5.71 µM. Work on `CN1[C@@H]2CC[C@H]1CC(OC(=O)C(CO)c1ccccc1)C2` (some centres undefined) [AB00694549-11] yielded an EC50 greater than 50 µM and an IC50 of 21.4 µM. With `COc1cc(/C=C(/C#N)c2nc(C)cs2)cc2c1OCO2` [AB00984802-01] the EC50 was greater than 67 µM and the IC50 was 21 µM. In the case of `O=S(=O)(Nc1ccc(-c2cn3cccnc3n2)cc1)c1ccc2c(c1)OCCO2` [AB01003479-01], the EC50 is reported as greater than 49 µM and the IC50 is reported as greater than 49 µM. Work on `N#Cc1ccc(CN2CCc3cc([N+](=O)[O-])ccc32)c(F)c1` [AB01004372-01] yielded an EC50 greater than 67 µM and an IC50 greater than 67 µM. For `CC(C)C[C@@H](NC(=O)[C@H](Cc1ccccc1)NC(=O)c1cnccn1)B(O)O` [AB01275474-01], the EC50 was greater than 50 µM and the IC50 was 1.29 µM. `CCN(CC)CCOc1ccc2c(c1)C(=O)c1cc(OCCN(CC)CC)ccc1-2` [Amixin IC] showed an EC50 greater than 50 µM and an IC50 of 30.2 µM. Work on `CCCc1nc(C)c2c(=O)[nH]c(-c3cc(S(=O)(=O)N4CCN(CC)CC4)ccc3OCC)nn12` [CHEBI:46295] yielded an EC50 greater than 50 µM and an IC50 of 0.14 µM. `CO[C@H]1/C=C/O[C@@]2(C)Oc3c(C)c(O)c4c(c3C2=O)C(=O)/C(=C/NN2CCN(C)CC2)C(=C4O)NC(=O)/C(C)=C\C=C\[C@H](C)[C@H](O)[C@@H](C)[C@@H](O)[C@@H](C)[C@H](OC(C)=O)[C@@H]1C` [Rifampicin] showed an EC50 greater than 50 µM. In the case of `O=C(CCCCCCC(=O)Nc1ccccc1)NO` [Zolinza], the EC50 is reported as greater than 50 µM and the IC50 is reported as 1.55 µM. For `Nc1ccc2cc3ccc(N)cc3nc2c1` [acridine-3,6-diamine], the EC50 was greater than 50 µM and the IC50 was 8.88 µM.
